The source of these data is ChEMBL document CHEMBL5241112, “Insights into the recent progress in the medicinal chemistry of pyranopyrimidine analogs” (RSC Med Chem, 2022).

≈ marks a conversion by molar mass, not a printed value.

One assay has as its system Aspergillus ochraceus. The assay can be described thus: Antifungal activity against Aspergillus ochraceus assessed as diameter of inhibition zone by disc diffusion method. The assay is classed as functional.
The subject of the next assay is Penicillium chrysogenum. Put plainly: Antifungal activity against Penicillium chrysogenum assessed as diameter of inhibition zone by disc diffusion method. The assay is classed as functional.
Assay [1] deals with Mycobacterium tuberculosis. The assay can be described thus: Antitubercular activity against Mycobacterium tuberculosis H37Rv assessed as bacterial growth inhibition incubated for 24 hrs by MABA assay. The assay is classed as functional.
The next assay relates to HepG2. The assay can be described thus: Anticancer activity against human HepG2 cells assessed as reduction in cell viability. The assay is classed as functional, cell-based.
In assay [2] the test system is MCF7. Put plainly: Anticancer activity against human MCF7 cells assessed as reduction in cell viability. The class given is functional, cell-based.
Assay [3] concerns HCT-116. The assay can be described thus: cells. As to conditions: Homo sapiens.
The species entered for the next assay is Homo sapiens. Put plainly: Anticoagulant activity in human plasma assessed as activated partial thromboplastin time at 1000 ug/ml incubated for 4 mins. The assay is classed as functional. The settings on record: dose 1000 µg/ml.
For another assay, the system named is Staphylococcus aureus. The assay can be described thus: Antibacterial activity against Staphylococcus aureus assessed as bacterial growth inhibition by broth microdilution method. The class given is functional.
A further assay deals with Pseudomonas aeruginosa. The assay can be described thus: Antibacterial activity against Pseudomonas aeruginosa assessed as bacterial growth inhibition by broth microdilution method. The class given is functional.
The next assay has as its system Escherichia coli. Put plainly: Antibacterial activity against Escherichia coli assessed as bacterial growth inhibition by broth microdilution method. The assay is classed as functional.
Another assay deals with Klebsiella pneumoniae. The assay can be described thus: Antibacterial activity against Klebsiella pneumoniae assessed as bacterial growth inhibition by broth microdilution method. The assay is classed as functional.
Assay [4] is described as follows: Antioxidant activity assessed as DPPH radical scavenging activity at 12 ug incubated for 30 mins by spectrophotometric analysis. The class given is functional. The settings on record: dose 12.0 µg.
Assay [5] in a line: Inhibition of porcine pancreatic alpha-amylase preincubated for 10 mins followed by substrate starch addition and measured after 10 mins by colorimetric analysis. Also noted: species or system Sus scrofa.
A further assay deals with Albumin (Bos taurus, UniProt P02769). Put plainly: […] bovine serum albumin denaturation incubated for 23 mins by UV-Visible spectrophotometry.
The target of another assay is Alpha-glucosidase (Saccharomyces cerevisiae S288c, UniProt P53341+P38158+P07265). The assay can be described thus: Inhibition of Saccharomyces cerevisiae alpha-glucosidase preincubated for 5 mins followed by PNP-GLUC substrate addition and measured after 20 mins by spectroscopic analysis. The class given is protein assay.
A short description of assay [6]: Antioxidant activity assessed as hydroxyl radical scavenging activity incubated for 5 mins by spectrophotometric analysis. Set-up: concentration or dose not given beside the values. The assay is classed as functional.
Assay [7] can be described thus: Antioxidant activity assessed as DPPH radical scavenging activity incubated for 20 mins by spectrophotometric analysis. The class given is functional. Also noted: concentration or dose not given beside the values.
The subject of assay [8] is HCT-116. The assay can be described thus: Anticancer activity against human HCT-116 cells assessed as reduction in cell viability incubated for 96 hrs by MTT assay. The class given is functional, cell-based. The settings on record: HCT-116, 96 h.
Assay [9] has as its system MCF7. Put plainly: cells. As to conditions: Homo sapiens, MCF7, 48 h.

Chain of Albumin (P02769 whole entry): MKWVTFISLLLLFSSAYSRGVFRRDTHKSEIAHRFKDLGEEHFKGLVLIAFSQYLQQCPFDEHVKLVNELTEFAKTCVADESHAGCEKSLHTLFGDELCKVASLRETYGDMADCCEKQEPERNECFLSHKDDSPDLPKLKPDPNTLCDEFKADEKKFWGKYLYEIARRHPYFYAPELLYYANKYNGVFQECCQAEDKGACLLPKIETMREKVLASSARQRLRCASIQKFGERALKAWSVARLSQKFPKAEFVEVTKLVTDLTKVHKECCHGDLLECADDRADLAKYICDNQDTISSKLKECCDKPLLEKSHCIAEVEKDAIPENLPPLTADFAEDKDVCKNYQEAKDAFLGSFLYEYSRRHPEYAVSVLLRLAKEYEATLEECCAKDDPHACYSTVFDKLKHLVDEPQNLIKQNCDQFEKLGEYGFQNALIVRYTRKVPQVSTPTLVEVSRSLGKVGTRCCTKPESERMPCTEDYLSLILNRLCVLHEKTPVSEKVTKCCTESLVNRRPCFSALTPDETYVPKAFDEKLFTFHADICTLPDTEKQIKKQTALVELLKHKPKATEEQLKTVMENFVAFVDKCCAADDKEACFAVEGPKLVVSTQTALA

`Brc1ccc2c3c(ccc2c1)Oc1ncn2nc(-c4ccccc4)nc2c1C3`: the “diameter of the inhibition zone (DIZ)” value in the assay on Aspergillus ochraceus came to 17 mm; in the assay with Penicillium chrysogenum, 13 mm. As to `O=c1nc2c3c([nH]1)Oc1c(O)cccc1C3c1c(c3ccccc3oc1=O)O2` (centres undefined), in assay [1], the MIC was 50 µg/mL (≈ 134 µM). On to `COc1ccc(C2C(C#N)=C(NC(C)=O)Oc3[nH]c(=O)[nH]c(=O)c32)cc1` (centres undefined), for which the IC50 in the assay with HepG2 came to 2.09 µM; in the assay on MCF7 [2], 2.43 µM; in the assay with HCT-116 [3], 2.61 µM. As to `CC1(C)CC(=O)C2=C(C1)Oc1ncn(-c3cccc4ccccc34)c(=N)c1C2c1ccccc1` (centres undefined), in the assay listed under Homo sapiens, the Time is on record as 63.2 s.

Regarding `CCO/C=N/C1=C(C#N)C(c2ccccc2Cl)c2c(n(C)c(=O)n(C)c2=O)O1` (centres undefined), the minimal inhibitory concentration (MIC) in the assay on Staphylococcus aureus, in the assay with Pseudomonas aeruginosa, in the assay with Escherichia coli and in the assay with Klebsiella pneumoniae was 6.25 µg/mL (≈ 15.6 µM) each time. On to `COc1ccc2c(c1)C1c3c(nc(=O)[nH]c3O2)Oc2c1c(=O)oc1ccccc21` (centres undefined), for which the MIC in [1] is 50 µg/mL (≈ 129 µM). On to `CCc1ccc(-n2cnc3c(c2=N)C(c2ccccc2)C2=C(CC(C)(C)CC2=O)O3)cc1` (centres undefined), for which the Time in the assay listed under Homo sapiens is reported as 61.8 s. On to `COc1ccc(C2c3c([nH]c(=O)[nH]c3=O)Oc3ncn(-c4ccc(C)cc4)c(=N)c32)cc1` (centres undefined), for which the IC50 in the assay with HepG2 was 2.09 µM; in the assay on MCF7 [2], 2.43 µM; in the assay on HCT-116 [3], 2.61 µM. Regarding `Cc1nc2c3c(ncn2n1)OC1=C(C(=O)CC(C)(C)C1)C3c1ccccc1` (centres undefined), the Time in the assay filed under Homo sapiens is given as 60.1 s. On to `Cc1n[nH]c2c1C(c1cc([N+](=O)[O-])ccc1O)c1c([nH]c(=O)[nH]c1=O)O2` (centres undefined), for which the Activity in assay [4] worked out at 89.1%. In the case of `Cc1ccc(C2C(C(=O)N3CCCCC3)=C(c3ccccc3O)Oc3[nH]c(=S)[nH]c(=O)c32)cc1` (centres undefined), the IC50 in assay [5] was 14.1 µM; at Albumin, 19.5 µM; at Alpha-glucosidase it was 4000 µM. Take `CC1(C)CC(=O)C2=C(C1)Oc1ncn(-c3ccccc3)c(=N)c1C2c1ccccc1` (centres undefined): the Time in the assay filed under Homo sapiens amounted to 57.1 s. Turning to `O=c1nc2c3c([nH]1)Oc1cc(O)ccc1C3c1c(c3ccccc3oc1=O)O2` (centres undefined), the MIC in assay [1] amounted to 50 µg/mL (≈ 134 µM). For `Brc1ccc2c3c(ccc2c1)Oc1ncn2ncnc2c1C3`, the “diameter of the inhibition zone (DIZ)” value with Aspergillus ochraceus came out at 17 mm; with Penicillium chrysogenum, 13 mm. On to `COc1ccc(C2C(C(=O)N3CCCCC3)=C(c3ccccc3O)Oc3[nH]c(=S)[nH]c(=O)c32)cc1` (centres undefined), for which the figures for the IC50 (in assay [5]; on Albumin; at Alpha-glucosidase) were 16.1 µM, 18.1 µM and 5223 µM, respectively. As to `O=c1[nH]c2c(c(=O)[nH]1)Oc1c(c(=O)oc3ccccc13)C2c1c(Cl)cccc1Cl` (centres undefined), the Activity in [6] stood at 65.4%; in assay [7], 71.2%.

With `CCO/C=N/C1=C(C#N)C(c2cccs2)c2c([nH]c(=O)[nH]c2=O)O1` (centres undefined), the IC50 in the assay on HCT-116 [8] worked out at 2.9 µM.

Turning to `COc1ccc(C2c3c(N)ncnc3Oc3ccc4cc(Br)ccc4c32)cc1` (centres undefined), the “diameter of the inhibition zone (DIZ)” value with Aspergillus ochraceus is reported as 17 mm; with Penicillium chrysogenum, 13 mm. In the case of `O=c1[nH]c2c(c(=O)[nH]1)Oc1c(c(=O)oc3ccccc13)C2c1ccccc1O` (centres undefined), the Activity worked out at 54.3% in [6] and 59.1% in [7]. With `O=c1[nH]cc(F)c(=O)[nH]1` [FLUOROURACIL], in the assay with MCF7 [9], the IC50 was 5.4 µM. On to `O=C(C1=C(c2ccccc2O)Oc2[nH]c(=S)[nH]c(=O)c2C1c1ccc(O)cc1)N1CCCCC1` (centres undefined), for which the IC50 in assay [5] was 27.1 µM; against Albumin, 19.7 µM; at Alpha-glucosidase, 3553 µM.

For the compound `O=c1nc2c3c([nH]1)Oc1ccc(Cl)cc1C3c1c(c3ccccc3oc1=O)O2` (centres undefined), the MIC in [1] is 6.25 µg/mL (≈ 15.9 µM). Consider `COc1ccc(C2C(C#N)=C(NC(=O)/C=C/C(=O)O)Oc3[nH]c(=O)[nH]c(=O)c32)cc1` (centres undefined), for which the IC50 in the assay on HepG2 came to 2.09 µM; with MCF7 [2] it was 2.43 µM; in the assay on HCT-116 [3], 2.61 µM. `O=c1nc2c3c([nH]1)Oc1ccc4ccccc4c1C3c1c(c3ccccc3oc1=O)O2` (centres undefined): the MIC in [1] came to 25 µg/mL (≈ 61.2 µM).
